Values quoted from earlier work, collected in article PMC12125103 (Naunyn-Schmiedeberg's Archives of Pharmacology, 2024).

Substance: etelcalcetide [Parsabiv]
- maximum single dose in healthy humans for safe tolerance: 10 mg
